Patent publication US20250346588A1, “IMIDAZOPYRIDINE AND OXAZOLOPYRIDINE DERIVATIVES AND ANALOGS THEREOF, METHODS OF PREPARATION THEREOF, METHODS OF HIF-1/2A PATHWAY INHIBITION, AND INDUCTION OF FERROPTOSIS” (KUDA THERAPEUTICS, INC., priority 2022, published 2025)

System: HIF-2α transcriptional activity
Assay: Hypoxia-responsive element-driven luciferase (HRE-Luc) screen
Type: cell-based, human
Conditions: 786-0 ccRCC cells stably expressing HRE-Luc; 24 h treatment; range of IC50 values
Description: Screens for inhibitory activity of compounds described herein were performed using 786-0 ccRCC cells that stably express HRE-Luc: 5 copies of the hypoxia-responsive element (HRE) fused to the pGL3 luciferase reporter (Promega Corp, Madison WI). 786-0 cells are pVHL deficient and thus constitutively express HIF-2α independently of cellular oxygen tension. Since 786-0 cells lack HIF-1α, HRE-driven luciferase activity is primarily HIF-2α driven, and has been previously validated. Cells were maintained at log phase growth in […] (DMEM) with 10% FBS in a humidified incubator at 37° C. with 5% CO2. For screening assays, cells were seeded at a density of 4,000 cells in 50 μl of complete media/well in quadruplicate wells/point in a 96-well plate. After 24 h, 50 μl of a 2× concentration of test compound was added to each well. Compounds were diluted from a 5-10 mM stock in DMSO and final concentrations of DMSO in each well in controls and treated wells were kept constant at ≤0.6% DMSO. After 24 h treatment, luciferase activity was measured using the Steady-Glo Luciferase assay system (Promega Corp) according to the manufacturer's protocol. Cell viability was measured in quadruplicate parallel wells using resazurin as recommended by the manufacturer (R&D systems, Minneapolis, MN). Data for luciferase and resazurin were normalized to DMSO treated controls (defining 100%) and wells containing assay reagent but no cells (defining 0%) and graphed using the log inhibitor versus normalized response option in Graphpad Prism 9.3.1 software. Representative data determined using Steady-Glo luciferase and resazurin are shown in FIGS. 1A and 1B respectively, with error bars showing SD. Filled diamonds, empty squares and empty triangles indicate treatment with 3, 8 and 22 respectively with results for HRE-Luc shown in FIG. 1A.

IC50 [µM]	SMILES
10 to 50	COc1cccc2nc(Nc3nnc(C4CCC(OC)CC4)o3)[nH]c12 (single isomer, unassigned) [Compound 75-isomer-2, N-(7-methoxy-1H-benzo[d]imidazol-2-yl)-5-(4-methoxycyclohexyl)-1,3,4-oxadiazol-2-amine]
10 to 50	COc1ccc(-c2nnc(Nc3nc4c(Cl)nccc4[nH]3)o2)cc1 [Compound 23, N-(4-chloro-1H-imidazo[4,5-c]74yridine-2-yl)-5-(4-methoxyphenyl)-1,3,4-oxadiazol-2-amine]

Same assay, conditions: Homo sapiens, 786-0, 24 h, 786-0 ccRCC cells stably expressing HRE-Luc; 24 h treatment; range of IC50 values

IC50 [µM]	SMILES
< 10	COc1cccc2nc(Nc3nnc(C4CCC(OC)CC4)o3)[nH]c12 (single isomer, unassigned) [Compound 75-isomer-1, N-(7-methoxy-1H-benzo[d]imidazol-2-yl)-5-(4-methoxycyclohexyl)-1,3,4-oxadiazol-2-amine]
10 to 50	Fc1ccc(-c2nnc(Nc3nc4cnc(Cl)cc4[nH]3)o2)cc1 [Compound 5, N-(6-Chloro-1H-imidazo[4,5-c]pyridin-2-yl)-5-(4-fluorophenyl)-1,3,4-oxadiazol-2-amine]
10 to 50	Fc1ccc(-c2nnc(Nc3nc4cnc(C(F)(F)F)cc4[nH]3)o2)cc1 [Compound 6, 5-(4-Fluorophenyl)-N-(6-(trifluoromethyl)-1H-imidazo[4,5-c]pyridin-2-yl)-1,3,4-oxadiazol-2-amine]
50 to 100	COc1ccc2nc(Nc3nnc(-c4ccc(F)cc4)o3)sc2n1 [Compound 9, 5-(4-Fluorophenyl)-N-(5-methoxythiazolo[5,4-b]pyridin-2-yl)-1,3,4-oxadiazol-2-amine]
10 to 50	Fc1ccc(-c2nnc(Nc3nc4ccnc(N5CCOCC5)c4[nH]3)o2)cc1 [Compound 17, 5-(4-Fluorophenyl)-N-(4-morpholino-3H-imidazo[4,5-c]pyridin-2-yl)-1,3,4-oxadiazol-2-amine]
50 to 100	COc1cccc(-c2nccc3nc(Nc4nnc(-c5ccc(F)cc5)o4)[nH]c23)c1 [Compound 19, 5-(4-Fluorophenyl)-N-(4-(3-methoxyphenyl)-3H-imidazo[4,5-c]pyridin-2-yl)-1,3,4-oxadiazol-2-amine]
10 to 50	COc1nccc2[nH]c(Nc3nnc(-c4ccc(C(F)(F)F)cc4)o3)nc12 [Compound 20, N-(4-methoxy-1H-imidazo[4,5-c]pyridin-2-yl)-5-(4-(trifluoromethyl)phenyl)-1,3,4-oxadiazol-2-amine]
10 to 50	COc1nccc2[nH]c(Nc3nnc(-c4ccc(OC(F)(F)F)cc4)o3)nc12 [Compound 21, N-(4-methoxy-1H-imidazo[4,5-c]pyridin-2-yl)-5-(4-(trifluoromethoxy)phenyl)-1,3,4-oxadiazol-2-amine]
< 10	COc1nccc2[nH]c(Nc3nnc(-c4ccc5c(c4)OCO5)o3)nc12 [Compound 27, N-(4-Methoxy-1H-imidazo[4,5-c]pyridin-2-yl)-5-(benzo[d][1,3]dioxol-5-yl)-1,3,4-oxadiazol-2-amine]
< 10	COc1nccc2[nH]c(Nc3nnc(-c4ccc(N(C)C)cc4)o3)nc12 [Compound 28, N-(4-Methoxy-1H-imidazo[4,5-c]pyridin-2-yl)-5-(4-(dimethylamino)phenyl)-1,3,4-oxadiazol-2-amine]
< 10	COc1ccc(-c2nnc(Nc3nc4ncccc4o3)o2)cc1 [Compound 30, N-(5-(4-Methoxyphenyl)-1,3,4-oxadiazol-2-yl)oxazolo[4,5-b]pyridin-2-amine]
< 10	COc1ccc(-c2nnc(Nc3nc4c(OC)nccc4[nH]3)o2)cn1 [Compound 39, N-(4-Methoxy-1H-imidazo[4,5-c]pyridin-2-yl)-5-(6-methoxypyridin-3-yl)-1,3,4-oxadiazol-2-amine]
< 10	COc1nccc2[nH]c(Nc3nnc(-c4ccc(OC5CC5)cc4)o3)nc12 [Compound 41, 5-(4-Cyclopropoxyphenyl)-N-(4-methoxy-1H-imidazo[4,5-c]pyridin-2-yl)-1,3,4-oxadiazol-2-amine]
10 to 50	COc1nccc2[nH]c(Nc3nnc(-c4ccc(OC(C)C)cc4)o3)nc12 [Compound 42, 5-(4-Isopropoxyphenyl)-N-(4-methoxy-1H-imidazo[4,5-c]pyridin-2-yl)-1,3,4-oxadiazol-2-amine]
> 100	COc1ccc(-c2csc(Nc3nc4c(OC)nc(C)cc4[nH]3)n2)cc1C#N [Compound 53, 2-Methoxy-5-(2-((4-methoxy-6-methyl-1H-imidazo[4,5-c]pyridin-2-yl)amino)thiazol-4-yl)benzonitrile]
< 10	COc1nccc2[nH]c(Nc3nnc([C@H]4CC[C@H](OC)CC4)o3)nc12 [Compound 63, N-(4-methoxy-1H-imidazo[4,5-c]pyridin-2-yl)-5-((1r,4r)-4-methoxycyclohexyl)-1,3,4-oxadiazol-2-amine]
< 10	COc1nccc2nc(Nc3nnc(C4CCN(C)CC4)o3)[nH]c12 [Compound 64, N-(4-methoxy-3H-imidazo[4,5-c]pyridin-2-yl)-5-(1-methylpiperidin-4-yl)-1,3,4-oxadiazol-2-amine]

The next lines start with the compound.

SMILES	IC50 [µM]
COc1ccc2[nH]c(Nc3nnc(-c4ccc(F)cc4)o3)nc2n1 [Compound 4, 5-(4-Fluorophenyl)-N-(5-methoxy-1H-imidazo[4,5-b]pyridin-2-yl)-1,3,4-oxadiazol-2-amine]	< 10
Cc1cncc2nc(Nc3nnc(-c4ccc(F)cc4)o3)[nH]c12 [Compound 7, 5-(4-Fluorophenyl)-N-(7-methyl-1H-imidazo[4,5-c]pyridin-2-yl)-1,3,4-oxadiazol-2-amine]	10 to 50
Fc1ccc(-c2nnc(Nc3nc4ncccc4o3)o2)cc1 [Compound 8, N-(5-(4-Fluorophenyl)-1,3,4-oxadiazol-2-yl)oxazolo[4,5-b]pyridin-2-amine]	> 10
Fc1ccc(-c2nnc(Nc3nc4cnc(N5CCOCC5)cc4[nH]3)o2)cc1 [Compound 10, 5-(4-Fluorophenyl)-N-(6-morpholino-1H-imidazo[4,5-c]pyridin-2-yl)-1,3,4-oxadiazol-2-amine]	10 to 50
Fc1ccc(-c2nnc(Nc3nc4cnc(Cl)nc4[nH]3)o2)cc1 [Compound 14, N-(2-Chloro-9H-purin-8-yl)-5-(4-fluorophenyl)-1,3,4-oxadiazol-2-amine]	10 to 50
Fc1ccc(-c2nnc(Nc3nc4cncc(N5CCOCC5)c4[nH]3)o2)cc1 [Compound 18, 5-(4-Fluorophenyl)-N-(7-morpholino-1H-imidazo[4,5-c]pyridin-2-yl)-1,3,4-oxadiazol-2-amine]	10 to 50
COc1ccc(-c2nnc(Nc3nc4c(OC)nccc4[nH]3)o2)cc1OC [Compound 26, N-(4-Methoxy-1H-imidazo[4,5-c]pyridin-2-yl)-5-(3,4-dimethoxyphenyl)-1,3,4-oxadiazol-2-amine]	< 10
COc1nccc2[nH]c(Nc3nnc(-c4ccc(C)cc4)o3)nc12 [Compound 29, N-(4-methoxy-1H-imidazo[4,5-c]pyridin-2-yl)-5-(p-tolyl)-1,3,4-oxadiazol-2-amine]	< 10
Fc1ccc(-c2nnc(Nc3nc4ccnc(-c5ccc6c(c5)OCO6)c4[nH]3)o2)cc1 [Compound 31, N-(4-(Benzo[d][1,3]dioxol-5-yl)-3H-imidazo[4,5-c]pyridin-2-yl)-5-(4-fluorophenyl)-1,3,4-oxadiazol-2-amine]	10 to 50
COc1nccc2[nH]c(Nc3nnc(-c4ccc(C#N)cc4)o3)nc12 [Compound 32, 4-(5-((4-Methoxy-1H-imidazo[4,5-c]pyridin-2-yl)amino)-1,3,4-oxadiazol-2-yl) benzonitrile]	> 10
COc1ccc(-c2nnc(Nc3nc4c(OC)nccc4[nH]3)o2)cc1F [Compound 33, 5-(3-Fluoro-4-methoxyphenyl)-N-(4-methoxy-1H-imidazo[4,5-c]pyridin-2-yl)-1,3,4-oxadiazol-2-amine]	> 10
COc1ccc(-c2nnc(Nc3nc4c(OC)nc(C)cc4[nH]3)o2)cc1OC [Compound 55, 5-(3,4-dimethoxyphenyl)-N-(4-methoxy-6-methyl-1H-imidazo[4,5-c]pyridin-2-yl)-1,3,4-oxadiazol-2-amine]	< 10
COc1ccc(-c2cnc(Nc3nc4c(OC)nccc4[nH]3)o2)cc1OC [Compound 59, 5-(3,4-dimethoxyphenyl)-N-(4-methoxy-1H-imidazo[4,5-c]pyridin-2-yl)oxazol-2-amine]	50 to 100
COc1nccc2[nH]c(Nc3nnc([C@H]4CC[C@@H](OC)CC4)o3)nc12 [Compound 62, N-(4-methoxy-1H-imidazo[4,5-c]pyridin-2-yl)-5-((1s,4s)-4-methoxycyclohexyl)-1,3,4-oxadiazol-2-amine]	< 10
COc1nccc2nc(Nc3nnc(N4CC(C)OC(C)C4)o3)[nH]c12 (centres unmarked) [Compound 70, 5-(2,6-dimethylmorpholino)-N-(4-methoxy-3H-imidazo[4,5-c]pyridin-2-yl)-1,3,4-oxadiazol-2-amine]	< 10
COc1cccc2nc(Nc3nnc(N4CCC(OC)CC4)o3)[nH]c12 [Compound 71, N-(7-methoxy-1H-benzo[d]imidazol-2-yl)-5-(4-methoxypiperidin-1-yl)-1,3,4-oxadiazol-2-amine]	< 10
